# Data from article PMC6745501, “Plant photoreceptors and their signaling components compete for COP1 binding via VP peptide motifs” (The EMBO Journal, 2019).
# Several values for one entry are separate records, joined by “and”; a condition that tells them apart may be missing. Identical values can stand only once.
# Tests used:
# [1] = biological target: T1, COP1^Lys422Ala WD40 domain (Arabidopsis thaliana, UniProt P43254, K422A); assay: biochemical; type: binding; details: for N (stoichiometry of binding), VP peptide vs. COP1^Lys422Ala: peptide into COP1^Lys422Ala, 25°C, ± standard deviation
# T1 construct: His10-Twin-Strep with TEV site (N, cleaved yes); made in house; host or cells: Spodoptera frugiperda Sf9 insect cells (baculovirus, modified pFastBac)
# T1 sequence (P43254 349-675 K422A): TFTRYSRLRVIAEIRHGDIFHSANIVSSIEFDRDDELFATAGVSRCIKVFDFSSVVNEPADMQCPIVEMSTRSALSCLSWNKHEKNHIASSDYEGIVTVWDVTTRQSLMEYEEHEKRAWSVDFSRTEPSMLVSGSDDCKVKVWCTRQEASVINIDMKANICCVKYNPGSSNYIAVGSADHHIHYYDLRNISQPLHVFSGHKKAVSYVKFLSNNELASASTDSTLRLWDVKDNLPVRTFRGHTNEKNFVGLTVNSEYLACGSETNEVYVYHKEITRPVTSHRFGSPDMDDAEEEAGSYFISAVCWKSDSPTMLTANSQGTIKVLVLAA
# Procedure: (§1) All experiments were performed in a buffer containing 150 mM NaCl, 20 mM HEPES 7.4, and 2 mM BME. […] The peptides were centrifuged at 14,000 × g for 10 min, and only the supernatant was used. The dissolved peptide concentrations were calculated based upon their absorbance at 280 nm and their corresponding molar extinction coefficient. […] Experiments were performed at 25°C and a stirring speed of 1,000 rpm on an ITC200 instrument (GE Healthcare). All data were processed using Origin 7.0 and fit to a one‐site binding model after background buffer subtraction.
# [2] = biological target: T2, Arabidopsis COP1^349–675 WD40 domain (Arabidopsis thaliana, UniProt P43254); assay: Isothermal titration calorimetry (ITC) versus the COP1 WD40 domain; type: binding; details: for N (stoichiometry of binding), VP peptide vs. COP1 WD40 domain (WT): peptide into COP1, 25°C, one-site binding model, ± standard deviation
# T2 construct: His10-Twin-Strep with TEV site (N, cleaved yes); made in house; host or cells: Spodoptera frugiperda Sf9 insect cells (baculovirus, modified pFastBac)
# T2 sequence (P43254 349-675): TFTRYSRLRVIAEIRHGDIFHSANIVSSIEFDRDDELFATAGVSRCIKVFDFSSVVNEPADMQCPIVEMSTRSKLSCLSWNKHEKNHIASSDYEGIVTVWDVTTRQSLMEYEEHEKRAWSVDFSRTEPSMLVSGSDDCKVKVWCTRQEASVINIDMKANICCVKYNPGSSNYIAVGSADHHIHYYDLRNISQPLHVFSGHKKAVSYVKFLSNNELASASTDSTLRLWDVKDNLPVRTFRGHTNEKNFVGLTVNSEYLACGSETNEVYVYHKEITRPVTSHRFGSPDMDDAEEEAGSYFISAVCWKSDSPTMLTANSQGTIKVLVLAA
# Procedure: All experiments were performed in a buffer containing 150 mM NaCl, 20 mM HEPES 7.4, and 2 mM BME. Peptides were synthesized and delivered as lyophilized powder (Peptide Specialty Labs GmbH) and dissolved directly in buffer. The peptides were centrifuged at 14,000 × g for 10 min, and only the supernatant was used. […] Experiments were performed at 25°C and a stirring speed of 1,000 rpm on an ITC200 instrument (GE Healthcare). All data were processed using Origin 7.0 and fit to a one‐site binding model after background buffer subtraction.
# [3] = biological target: T3, COP1^Tyr441Ala WD40 domain (Arabidopsis thaliana, UniProt P43254, Y441A); type: binding; details: ITC, peptide into COP1^Tyr441Ala, 25°C; ± standard deviation
# T3 construct: His10-Twin-Strep with TEV site (N, cleaved yes); made in house; host or cells: Spodoptera frugiperda Sf9 insect cells (baculovirus, modified pFastBac)
# T3 sequence (P43254 349-675 Y441A): as the sequence (P43254 349-675 K422A) above, with A74K, Y93A counted along it
# Procedure: as §1
# COP1 WD40 domain [4] = assay: Analytical size-exclusion chromatography binding assay; set-up: species or system Arabidopsis; details: Superdex 200 Increase 10/300 GL, ~4 μM per protein
# Procedure: 500 μl of the respective protein solution or a mixture (~ 4 μM per protein) was loaded sequentially onto the column, and elution at 0.75 ml/min was monitored by UV absorbance at 280 nm.
# COP1 WD40 domain [5] = assay: Grating-coupled interferometry (GCI) binding kinetics versus the COP1 WD40 domain; set-up: species or system Arabidopsis; details: ligand COP1 (2000 pg/mm2), analyte in the absence of UV-B (ground state), highest concentration 2 μM, 1:1 binding model, read-out: Kd (dissociation constant), - UV-B
# Procedure: For CRY2 activation, proteins were diluted to their final assay concentrations (as indicated in the figure legends) in Eppendorf tubes and exposed to 10 min of fluorescent light on ice.
# The Creoptix WAVE system (Creoptix AG), a label‐free surface biosensor, was used to perform GCI experiments. All experiments were performed on 2PCH or 4PCH WAVEchips (quasi‐planar polycarboxylate surface; Creoptix AG). After a borate buffer conditioning (100 mM sodium borate pH 9.0, 1 M NaCl; Xantec), COP1 (ligand) was immobilized on the chip surface using standard amine‐coupling: 7 min activation [1:1 mix of 400 mM N‐(3‐dimethylaminopropyl)‐N′‐ethylcarbodiimide hydrochloride and 100 mM N‐hydroxysuccinimide (both Xantec)], injection of COP1 (10 μg/ml) in 10 mM sodium acetate pH 5.0 (Sigma) until the desired density was reached, and final quenching with 1 M ethanolamine pH 8.0 for 7 min (Xantec). […] Blank injections were used for double referencing and a dimethyl sulfoxide (DMSO) calibration curve for bulk correction. Analysis and correction of the obtained data were performed using the Creoptix WAVEcontrol software (applied corrections: X and Y offset; DMSO calibration; double referencing), and a one‐to‐one binding model or a heterogenous ligand model with bulk correction was used to fit all experiments.
substance,measurement,setting,value
Ac-GFGVVPSFY-NH2 [COL3 peptide],"N (stoichiometry of binding), VP peptide vs. COP1^Lys422Ala",[1]; ITC,0.90 ± 0.2
same,"N (stoichiometry of binding), VP peptide vs. COP1 WD40 domain (WT)",[2]; ITC,0.75 ± 0.2
Ac-GYGIVPSFY-NH2 [CO peptide],Kd,[1],21 ± 10 µM
same,"N (stoichiometry of binding), VP peptide vs. COP1^Lys422Ala",[1]; ITC,0.89 ± 0.03
same,Fold increase of binding affinity for COP1^Lys422Ala compared with wild type COP1,"[1]; ITC, ratio of Kd values",~ 4
same,"N (stoichiometry of binding), VP peptide vs. COP1 WD40 domain (WT)",[2]; ITC,1.03 ± 0.00
Ac-EDQMVPSITY-NH2 [CRY1 peptide],"N (stoichiometry of binding), VP peptide vs. COP1^Lys422Ala",[1]; ITC,0.98 ± 0.1
same,"N (stoichiometry of binding), VP peptide vs. COP1 WD40 domain (WT)",[2]; ITC,0.99 ± 0.3
Ac-NDQQVPSAVY-NH2 [CRY2 peptide],Times reduction of binding by the COP1^Lys422Ala mutation compared with wild type COP1,"[1]; ITC, ratio of Kd values",~ 30
same,Kd,[2],21 ± 2 µM
same,"N (stoichiometry of binding), VP peptide vs. COP1 WD40 domain (WT)",[2]; ITC,1.04 ± 0.20
Ac-EIRRVPEFGGY-NH2 [HY5 peptide],"N (stoichiometry of binding), VP peptide vs. COP1^Tyr441Ala",[3],0.92 ± 0.3
same,Kd,[1],23 ± 10 µM
same,"N (stoichiometry of binding), VP peptide vs. COP1^Lys422Ala",[1]; ITC,0.83 ± 0.2
same,Kd,[2],23 ± 7 µM
same,Times stronger binding to COP1 than UVR8^406–413,"[2]; ITC, ratio of Kd values",~ 8
UVR8: recombinant full-length Arabidopsis UV-B photoreceptor UVR8 expressed in insect cells,"Interaction with the COP1 WD40 domain in size-exclusion chromatography, UV-B-activated","COP1 WD40 domain [4]; 150 mM NaCl, 20 mM HEPES 7.4, 2 mM BME, protein pre-monomerized by UV-B",interact
same,"Interaction with the COP1 WD40 domain in size-exclusion chromatography, non-activated",COP1 WD40 domain [4]; absence of UV-B (dimer),no interaction
same,Kd,COP1 WD40 domain [5],~1 µM and 1.3 µM
Ac-RYAVVPDE-NH2 [UVR8 peptide],"N (stoichiometry of binding), VP peptide vs. COP1^Lys422Ala",[1]; ITC,0.87 ± 0.2
same,Fold increase of binding affinity for COP1^Lys422Ala compared with wild type COP1,"[1]; ITC, ratio of Kd values",~ 10
